Measurements reported in patent US9249140B2, “Bicyclic heteroaromatic compounds” (MERCK PATENT GMBH, priority 2011, dated 2016).

How the values were obtained:
FAK [1] = target: T1, FAK (Homo sapiens, UniProt Q05397); assay: FAK kinase assay (autophosphorylation), 384-well flashplate; type: biochemical; settings: enzymatic; 1 μM ATP; read-out: IC50 (enzymatic), FAK inhibition
T1 construct: 2 nM FAK, 400 nM biotinylated substrate
Protocol: The focal adhesion kinase (FAK) assay is carried out either as a 384-well flashplate assay (for example for Topcount measurements) or as a 384-well image flashplate assay (for LEADseeker measurements). […] The reaction is stopped using 25 μl of 200 mM EDTA. After 30 min at 30° C., the liquid is removed, and each well is washed three times with 100 μl of 0.9% sodium chloride solution. Non-specific reaction is determined in the presence of 1 μM EMD 1076893/0(PF-562271). The radioactivity is measured using Topcount (in the case of the use of flashplates) or using LEADseeker (in the case of the use of image flashplates).

FAK [2] = target: T1, FAK; assay: Cellular testing of FAK kinase inhibitors: autophosphorylation of FAK at tyrosine 397, Luminex-based assay in HT29 cells; type: cell-based; settings: P-Y397-FAK in HT29 cells, 30 min, serum-free, read-out: IC50 (cellular), FAK inhibition
Protocol: For analysis of the cellular activity of FAK, the extent of autophosphorylation of FAK at tyrosine 397 is determined with the aid of a Luminex-based assay in the 96-well format. HT29 cells are sown out with 30,000 cells per well in 100 μl of medium (90% of DMEM/10% of FCS) and incubated on the following day for 30 min with a serial dilution of the test substance (7 concentrations) under serum-free conditions. The cells are subsequently lysed using 90 μl of lysis buffer (20 mM tris/HCl pH 8.0, 150 mM NaCl, 1% of NP40, 10% of glycerol, 1% of phosphatase inhibitor II, 20 mM β-glycerol phosphate, 0.1% of protease inhibitor cocktail III, 0.01% of benzonase) per well, and the lysates are separated off from insoluble cell constituents by means of centrifugation through a 96-well filter plate (0.65 μm). The lysates are incubated at 4° C. overnight with shaking with Luminex beads to which an anti-total FAK antibody is coupled. The detection is carried out on the following day by addition of a P-Y397-FAK antibody and a species-specific PE-labelled secondary antibody. P-Y397-FAK is detected by measurement in the Luminex100 instrument by determination of 100 events per cavity in a measurement time of 60 sec. […] The values of the batches treated with test substance are calculated therefrom as percent of control, and IC50 values are determined by means of Assay Explorer.

T1 sequence (Q05397 whole entry): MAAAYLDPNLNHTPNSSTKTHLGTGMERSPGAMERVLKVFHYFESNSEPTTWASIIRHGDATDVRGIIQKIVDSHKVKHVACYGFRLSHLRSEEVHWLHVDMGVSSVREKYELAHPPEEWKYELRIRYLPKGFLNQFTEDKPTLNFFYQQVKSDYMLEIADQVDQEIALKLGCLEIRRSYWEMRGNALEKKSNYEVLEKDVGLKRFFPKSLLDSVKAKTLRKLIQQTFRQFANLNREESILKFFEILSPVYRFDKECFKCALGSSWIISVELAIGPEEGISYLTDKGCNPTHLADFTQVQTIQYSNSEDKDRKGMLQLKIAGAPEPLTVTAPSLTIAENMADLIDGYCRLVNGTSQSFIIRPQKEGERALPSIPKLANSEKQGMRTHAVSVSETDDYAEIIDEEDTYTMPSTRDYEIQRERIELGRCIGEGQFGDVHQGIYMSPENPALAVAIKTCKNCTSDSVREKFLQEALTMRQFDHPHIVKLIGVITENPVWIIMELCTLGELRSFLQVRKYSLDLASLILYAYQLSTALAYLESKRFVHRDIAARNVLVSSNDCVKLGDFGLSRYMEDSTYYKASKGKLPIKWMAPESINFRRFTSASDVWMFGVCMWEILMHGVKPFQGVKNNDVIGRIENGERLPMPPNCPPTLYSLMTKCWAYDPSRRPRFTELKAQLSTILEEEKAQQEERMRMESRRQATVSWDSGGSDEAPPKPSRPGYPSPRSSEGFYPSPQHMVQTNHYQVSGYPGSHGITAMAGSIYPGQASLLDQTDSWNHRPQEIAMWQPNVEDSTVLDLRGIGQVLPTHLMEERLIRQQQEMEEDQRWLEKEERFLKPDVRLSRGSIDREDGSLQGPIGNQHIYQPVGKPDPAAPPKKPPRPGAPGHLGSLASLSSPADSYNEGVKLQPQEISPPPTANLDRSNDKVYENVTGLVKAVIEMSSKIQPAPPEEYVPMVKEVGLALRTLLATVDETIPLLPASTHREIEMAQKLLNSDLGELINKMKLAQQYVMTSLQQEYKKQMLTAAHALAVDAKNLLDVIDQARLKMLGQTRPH

IC50 (FAK [1]): 0.3 to 3 µM | IC50 (FAK [2]): 3 to 50 µM
SMILES: CN(c1ncccc1CNc1c(C#N)cnc2[nH]cc(Cl)c12)S(C)(=O)=O [A10, N-{3-[(3-Chloro-5-cyano-1H-pyrrolo[2,3-b]-pyridin-4-ylamino)methyl]pyridin-2-yl}-N-methylmethanesulfonamide]
